Measured values published in US7256201B2, “Selective estrogen receptor-β ligands” (AstraZeneca AB, priority 2000, dated 2007).
pEC50, pKi: −log10 of the molar value.

Columns and labels:
αER = molecular target: T1, αER (Homo sapiens, UniProt P03372); test: Cell-based assay for ER transcriptional activity (ERE β-gal reporter), αER-transfected 293 cells; details: 293 cells transfected with αER and ERE reporter; for ERE α-ER Max: maximal response, unit assumed; for pEC50: read-out: ERE α-ER EC50
T1 construct: expressed in transfected cells; host or cells: 293 cells (Human Embryonic Kidney, ATCC CRL-1573)
T1 sequence (P03372 1-595): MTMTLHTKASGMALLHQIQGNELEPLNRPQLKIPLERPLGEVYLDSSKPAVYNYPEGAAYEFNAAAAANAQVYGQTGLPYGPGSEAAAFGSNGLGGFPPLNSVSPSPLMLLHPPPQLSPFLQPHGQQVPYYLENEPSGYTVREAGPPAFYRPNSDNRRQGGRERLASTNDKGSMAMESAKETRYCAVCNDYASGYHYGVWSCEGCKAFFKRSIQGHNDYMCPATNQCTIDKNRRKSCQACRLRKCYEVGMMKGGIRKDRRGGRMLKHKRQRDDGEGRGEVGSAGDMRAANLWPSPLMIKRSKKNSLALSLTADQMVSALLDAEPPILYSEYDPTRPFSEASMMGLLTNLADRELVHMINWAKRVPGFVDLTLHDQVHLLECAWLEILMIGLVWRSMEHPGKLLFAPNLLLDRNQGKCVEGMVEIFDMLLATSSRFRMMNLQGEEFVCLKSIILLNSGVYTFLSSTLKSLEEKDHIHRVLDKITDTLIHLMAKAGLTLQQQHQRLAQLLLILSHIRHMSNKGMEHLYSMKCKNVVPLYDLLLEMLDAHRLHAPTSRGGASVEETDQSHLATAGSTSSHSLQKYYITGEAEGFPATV
Experimental: (§1) ERs are ligand-dependent transcription factors that bind the promoter regions of genes at a consensus DNA sequence called the estrogen responsive element (ERE). The ER agonist or antagonist activity of a drug was determined by measuring the amount of reporter enzyme activity expressed from a plasmid under the control of an estrogen-responsive element when cells transiently transfected with ER and the reporter plasmid were exposed to drug. These experiments were conducted according to the following methods.
(§2) Estrogen Receptors alpha (αER, Gen Bank accession #M12674), and beta (βER, Gen Bank #X99101 were cloned into the expression vector pSG5 (Stratagene). A trimer of the vitellogenin-gene estrogen response element (vitERE) was synthesized as an oligonucleotide and attached to a beta-globin basal promoter in a construct named pERE3 gal. This response element and promoter were removed from pERE3 gal by digestion with the endonucleases SpeI (filled with Klenow fragment) and HindIII. This blunt/Hind III fragment was cloned into the β-galactosidase (β-gal) enhancer reporter plasmid (pBGALenh, Stratagene). αER and βER plasmids were purified using a the Endo Free Maxi Kit (Qiagen), and the DNA concentration and purity (A260/280 ratio) were determined spectrophotometrically (Pharmacia). Only DNA with A260/280 ratio of 1.8 and a concentration of >1 ug/uL was used for transfections.
(§3) All Transfections are performed in 293 cells (Human Embryonic Kidney cells ATCC #CRL-1573). Cells are grown in DMEM supplemented with 10% FBS, glutamine, sodium pyruvate and penicilin/streptomycin. Cells are grown to 70% confluency and split 1:4.
(§4) • 1. 293 cells are split the night before onto collagen I-coated 150 mm tissue-culture plates (Biocoat, Becton Dickinson #354551) at a density of 60-70% in DMEM Mediatech 17-205-CV) 10% charcoal-stripped FBS (biocell #6201-31). Approximately 1×10^7 cells/plate will yield 70% confluency. • 2. The next morning, 1 hour prior to transfection, the media is changed to fresh DMEM 10% FBS stripped and supplements. • 3. Transfections are performed using the Profection Kit (Promega #E1200). This kit is based on the calcium-phosphate-mediated transfection technique. Reagents are added in sterile polystyrene tubes in the following order:
(§5) Solution A • 15 μg αER or βER • 45 μg Reporter (pBGALenh or ERE3) • 1.5 mL Sterile Water • 186 μL CaCl2 • *Mix gently
(§6) Solution B • 1.5 mL 2× Hank's Buffered Salt Solution • 4. Using a vortex set on low, add solution A to solution B dropwise. The resulting solution should become milky in color. It is important to achieve thorough mixing. The solution is allowed to settle for 30 minutes, then vortexed before adding the solution to cells. • 5. Add the mixture to 150 mm plates dropwise. Mix well by rocking plates back and forth and side to side gently. After an hour, a very fine precipitate should be seen floating on and above cells under 20× magnification. If this precipitate is not observed, the transfection will not be effective. Incubate the cells for 12 hours. Receptor Stimulation: • 1. The day after transfection, cells are washed 2× with calcium- and magnesium-free Mg free PBS containing 1 mM EGTA (pH 7.6). Cells are trypsinized for 2 min with 3 mL of trypsin-EDTA. Trypsin is neutralized with DMEM 10% FCS. Cells are pelleted at 1000×g for 5 min. The cell pellet is then resuspended in 5 mL DMEM plus 2% phenol-red-free FCS supplemented with glutamine, pyruvate, and Penn/Strep. • 2. 50 μl of the resulting cell suspension is plated into each well of 96-well tissue culture dishes (Biocoat B&D #354407) using a multi-channel pipettor. The dishes have been previously loaded with 50 μL of DMSO-solubilized test compounds at twice the test concentration in DMEM. Data reported are either n=4 wells (single poke) and n=2 wells (9-point concentration-response curves). • 3. Cells are incubated overnight at 37° C. in the selected compounds. Reporter Assay: • 1. […]

human recombinant ERβ = molecular target: T2, human recombinant ERβ (Homo sapiens, UniProt Q92731); test: Fluorescence polarization estrogen receptor (ERFP) binding assay, ERβ; details: for pKi: competition with Fluormone ES2, IC50 converted to Ki by Kenakin formula, read-out: FP β-ER Ki; for FP Selectivity: ratio α-ER Ki / β-ER Ki
T2 construct: purchased PanVera (Madison, Wis.)
Experimental: (§7) A homogeneous mix-and-measure estrogen receptor (ER) binding assay which utilizes fluorescence polarization (FP) technology is used to identify compounds with affinity for the estrogen receptor. Purchased from PanVera (Madison, Wis.), assay reagents include purified human recombinant ERα, human recombinant ERβ, ES2 screening buffer (100 mM potassium phosphate, pH 7.4, 100 μg/mL bovine gamma globulin), and Fluormone™ ES2.
(§8) For competition binding experiments, dilutions of test compounds are prepared at 2× the final assay concentration in 0.2% DMSO in ES2 Screening buffer on TECAN Genosys, and 25 μL compound/well is dispensed into black Costar ½ volume 96-well plates. Dependent upon a lot specific Kd determination, 10-40 nM ERα or 10-40 nM ERβ and 1 nM Fluormone ES2 are then added to these plates in a final assay volume of 50 μL/well. Plates are gently shaken for at least 5 minutes to mix and incubated for at least 1 hr 45 minutes to achieve equilibrium. (Reaction mixtures are stable for up to 5 hours). After centrifugation to remove air bubbles, plates are read on an LJL Analyst or Acquest equipped with Criterion software at the following settings: Fluorescence Polarization Mode; Static Polarizer on Excitation Side; Dynamic Polarizer on Emission Side; Excitation λ=485×/−5 10 nm; Emission λ=520+/−12.5 nm.
(§9) Polarized fluorescence intensity values are collected and subsequently converted electronically to millipolarization (mp) values. Following data reduction and normalization with Excel and/or Prism software, % Ctrl values at the various test concentrations are used to obtain IC50 values via non-linear regression analysis of a four-parameter logistic equation.
(§10) Because ligand depletion is a consideration in this assay (˜40-60% input ES2 is bound in the assay), IC50 values are converted to Ki values through application of the Kenakin formula, as outlined in the reference below, rather than via the more routinely-used Cheng-Prusoff formula.

human recombinant ERα = molecular target: T3, human recombinant ERα (Homo sapiens, UniProt P03372); test: Fluorescence polarization estrogen receptor (ERFP) binding assay, ERα; details: competition with Fluormone ES2; IC50 converted to Ki by Kenakin formula; read-out: FP α-ER Ki
T3 construct: purchased PanVera (Madison, Wis.)
T3 sequence (P03372 1-595): T1 sequence (P03372 1-595)
Experimental: as §7, §8, §9, §10

βER = molecular target: T4, βER (Homo sapiens, UniProt Q92731); test: Cell-based assay for ER transcriptional activity (ERE β-gal reporter), βER-transfected 293 cells; details: for ERE β-ER Max / pEC50: 293 cells transfected with βER and ERE reporter; for ERE β-ER Max: maximal response, unit assumed; for ERE Selectivity: ratio α-ER EC50 / β-ER EC50
T4 construct: expressed in transfected cells; host or cells: 293 cells (Human Embryonic Kidney, ATCC CRL-1573)
Experimental: as §1, §2, §3, §4, §5, §6

T4 sequence (Q92731 54-530 limits assumed): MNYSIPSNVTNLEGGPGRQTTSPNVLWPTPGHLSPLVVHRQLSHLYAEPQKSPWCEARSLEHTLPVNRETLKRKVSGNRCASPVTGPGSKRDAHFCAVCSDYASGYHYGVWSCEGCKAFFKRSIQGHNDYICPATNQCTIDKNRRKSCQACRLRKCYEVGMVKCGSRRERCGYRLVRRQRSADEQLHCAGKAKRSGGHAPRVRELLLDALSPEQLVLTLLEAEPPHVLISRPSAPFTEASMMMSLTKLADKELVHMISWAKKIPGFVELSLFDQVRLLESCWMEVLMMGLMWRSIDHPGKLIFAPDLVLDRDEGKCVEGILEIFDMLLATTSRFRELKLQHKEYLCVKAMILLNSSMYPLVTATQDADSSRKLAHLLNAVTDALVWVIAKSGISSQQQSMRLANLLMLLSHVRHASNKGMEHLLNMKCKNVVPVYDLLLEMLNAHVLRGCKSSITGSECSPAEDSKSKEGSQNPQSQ
T2 sequence (Q92731 whole entry): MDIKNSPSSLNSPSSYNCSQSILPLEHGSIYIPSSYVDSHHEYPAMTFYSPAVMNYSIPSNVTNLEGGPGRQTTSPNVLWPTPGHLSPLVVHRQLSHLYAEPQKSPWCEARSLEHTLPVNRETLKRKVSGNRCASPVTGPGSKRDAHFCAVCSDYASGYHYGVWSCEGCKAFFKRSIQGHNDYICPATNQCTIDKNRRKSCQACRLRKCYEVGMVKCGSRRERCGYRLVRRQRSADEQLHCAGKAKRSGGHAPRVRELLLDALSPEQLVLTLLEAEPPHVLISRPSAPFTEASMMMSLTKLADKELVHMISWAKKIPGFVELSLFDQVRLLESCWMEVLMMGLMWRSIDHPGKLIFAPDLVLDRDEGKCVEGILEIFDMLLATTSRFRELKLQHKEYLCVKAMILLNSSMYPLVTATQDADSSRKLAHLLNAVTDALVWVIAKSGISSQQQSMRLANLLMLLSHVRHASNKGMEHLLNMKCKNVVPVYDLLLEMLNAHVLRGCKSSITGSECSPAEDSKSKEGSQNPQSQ

| SMILES | ERE α-ER Max (αER) | pKi (human recombinant ERβ) | FP Selectivity (human recombinant ERβ) | pKi (human recombinant ERα) | ERE β-ER Max (βER) | pEC50 (αER) | pEC50 (βER) | ERE Selectivity (βER) |
| --- | --- | --- | --- | --- | --- | --- | --- | --- |
| Cc1ccccc1C1c2ccc(O)cc2CCN1c1ccc(O)cc1 (stereo not shown) [Example 12, 2-(4-Hydroxyphenyl)-1-o-tolyl-1,2,3,4-tetrahydroisoquinolin-6-ol] | 113% | 8.10 | 2.2 | 7.80 | 71% | – | – | – |
| Oc1ccc2c(c1)CCN(c1ccc(Cl)cc1Cl)C2 [Example 13, 2-(2,4-Dichloro-phenyl)-1,2,3,4-tetrahydro-isoquinolin-6-ol] | 89% | 7.49 | 1.8 | 7.26 | 69% | – | – | – |
| Cc1ccc(N2CCc3cc(O)ccc3C2c2ccccc2)cc1O (stereo not shown) [Example 20, 2-(3-Hydroxy-4-methyl-phenyl)-1-phenyl-1,2,3,4-tetrahydro-isoquinolin-6-ol] | 75% | 8.92 | 2.5 | 8.52 | 85% | 8.92 | 9.40 | 3.3 |
| Cc1ccc(N2CCc3cc(O)ccc3C2c2ccoc2)cc1O (stereo not shown) [Example 21, 1-Furan-3-yl-2-(3-hydroxy-4-methyl-phenyl)-1,2,3,4-tetrahydro-isoquinolin-6-ol] | 77% | 8.42 | 6.0 | 7.66 | 106% | 9.10 | 9.15 | 1.1 |
| Oc1ccc(N2Cc3ccc(O)cc3C2)cc1 [Example 25, 5-Hydroxy-2-(4-hydroxyphenyl)isoindoline] | 60% | 7.26 | 3.5 | 6.72 | 77% | 6.72 | 6.79 | 1.2 |
| CCC1c2cc(O)ccc2CN1c1ccc(O)cc1 (stereo not shown) [Example 26, 1-Ethyl-6-hydroxy-2-(4-hydroxyphenyl)isoindoline] | 102% | 6.80 | 1.3 | 6.70 | 85% | 7.14 | 7.10 | 0.9 |

Now from value to molecule:

| ERE α-ER Max (αER) | pKi (human recombinant ERβ) | FP Selectivity (human recombinant ERβ) | pKi (human recombinant ERα) | ERE β-ER Max (βER) | pEC50 (αER) | pEC50 (βER) | ERE Selectivity (βER) | SMILES |
| --- | --- | --- | --- | --- | --- | --- | --- | --- |
| 42% | 7.35 | 6.8 | 6.51 | 44% | 6.00 | 6.84 | 7.0 | CC1c2ccc(O)cc2CCN1c1ccc(O)cc1 (stereo not shown) [Example 14, 2-(4-Hydroxy-phenyl)-1-methyl-1,2,3,4-tetrahydro-isoquinolin-6-ol] |
| 37% | 7.74 | 3.3 | 7.23 | 51% | 6.00 | 7.64 | 43 | CCC1c2ccc(O)cc2CCN1c1ccc(O)cc1 (stereo not shown) [Example 15, 1-Ethyl-2-(4-hydroxy-phenyl)-1,2,3,4-tetrahydro-isoquinolin-6-ol] |
| 87% | 7.47 | 3.3 | 6.96 | 72% | 8.60 | 7.31 | 0.1 | CC1c2ccc(O)cc2CCN1c1cccc(O)c1 (stereo not shown) [Example 17, 2-(3-Hydroxy-phenyl)-1-methyl-1,2,3,4-tetrahydro-isoquinolin-6-ol] |
| 85% | 8.35 | 2.1 | 8.05 | 117% | 7.61 | 8.21 | 4.0 | Cc1ccc(O)cc1N1CCc2cc(O)ccc2C1C (stereo not shown) [Example 18, 2-(5-Hydroxy-2-methyl-phenyl)-1-methyl-1,2,3,4-tetrahydro-isoquinolin-6-ol] |
| 66% | 7.61 | 3.0 | 7.14 | 41% | 7.77 | 6.68 | 0.1 | CCC1c2ccc(O)cc2CCN1c1ccc(O)c(Cl)c1 (stereo not shown) [Example 19, 2-(3-Chloro-4-hydroxy-phenyl)-1-ethyl-1,2,3,4-tetrahydro-isoquinolin-6-ol] |
